Activity calls are given as the source filed them.
Tests used:
[1] = NIH-3T3 fibroblast cytotoxicity, dose response, cytotoxicity control, cell-based, fluorescence, Alamar Blue, secondary assay (AID 2327); assay type: functional;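 further: NIH-3T3 mouse fibroblasts cultured with fluconazole at 8 µg/mL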
[2] = C. albicans growth with fluconazole, confirmation, fluorescence, retest (AID 2467); assay type: functional, cell-based
[3] = target: Serine/threonine-protein phosphatase (Candida dubliniensis (strain CD36 / CBS 7987 / NCPF 3949 / NRRLY-17841) (Yeast), UniProt B9W6M3); assay: calcineurin pathway inhibitors in yeast reporter, dose response, S. cerevisiae, CDRE-lacZ, luminescence, secondary (AID 2388); assay type: functional, cell-based;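 further: yeast reporter cells carrying a calcineurin-responsive lacZ construct stimulated with calcium chloride; luminescent beta-galactosidase reporter signal in whole cells rather than isolated phosphatase activity; potency for inhibition where a drop in reporter signal means calcineurin blockade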
Chain of Serine/threonine-protein phosphatase (B9W6M3 whole entry): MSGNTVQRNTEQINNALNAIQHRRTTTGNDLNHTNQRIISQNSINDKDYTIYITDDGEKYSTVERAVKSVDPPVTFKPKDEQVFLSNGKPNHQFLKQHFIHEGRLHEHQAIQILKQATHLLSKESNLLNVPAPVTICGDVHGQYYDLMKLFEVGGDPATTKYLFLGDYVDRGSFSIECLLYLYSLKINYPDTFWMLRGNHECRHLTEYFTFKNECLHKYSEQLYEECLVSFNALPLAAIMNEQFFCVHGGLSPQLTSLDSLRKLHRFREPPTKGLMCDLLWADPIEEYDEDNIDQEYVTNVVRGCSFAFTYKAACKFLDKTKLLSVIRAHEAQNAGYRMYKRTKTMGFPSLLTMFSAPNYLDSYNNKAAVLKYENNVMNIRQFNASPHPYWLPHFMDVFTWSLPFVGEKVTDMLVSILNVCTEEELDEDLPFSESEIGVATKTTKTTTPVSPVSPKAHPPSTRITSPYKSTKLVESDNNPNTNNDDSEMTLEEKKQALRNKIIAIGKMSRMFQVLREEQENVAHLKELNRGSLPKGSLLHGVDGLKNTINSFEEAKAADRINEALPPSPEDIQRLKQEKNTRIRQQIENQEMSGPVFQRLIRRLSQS

[4] = target: ATP-dependent molecular chaperone HSP82 (Candida albicans (strain WO-1) (Yeast), UniProt C4YTQ8); assay: loss of DOC-induced GRE-beta-galactosidase reporter signal, dose response, Hsp90 inhibitor project, S. cerevisiae, luminescence (AID 2400); assay type: functional, cell-based;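 further: beta-galactosidase luminescence from glucocorticoid response element reporter as proxy for Hsp90 function; inhibitor potency where signal loss means Hsp90 inhibition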
Chain of ATP-dependent molecular chaperone HSP82 (C4YTQ8 whole entry, the tested form may be a part): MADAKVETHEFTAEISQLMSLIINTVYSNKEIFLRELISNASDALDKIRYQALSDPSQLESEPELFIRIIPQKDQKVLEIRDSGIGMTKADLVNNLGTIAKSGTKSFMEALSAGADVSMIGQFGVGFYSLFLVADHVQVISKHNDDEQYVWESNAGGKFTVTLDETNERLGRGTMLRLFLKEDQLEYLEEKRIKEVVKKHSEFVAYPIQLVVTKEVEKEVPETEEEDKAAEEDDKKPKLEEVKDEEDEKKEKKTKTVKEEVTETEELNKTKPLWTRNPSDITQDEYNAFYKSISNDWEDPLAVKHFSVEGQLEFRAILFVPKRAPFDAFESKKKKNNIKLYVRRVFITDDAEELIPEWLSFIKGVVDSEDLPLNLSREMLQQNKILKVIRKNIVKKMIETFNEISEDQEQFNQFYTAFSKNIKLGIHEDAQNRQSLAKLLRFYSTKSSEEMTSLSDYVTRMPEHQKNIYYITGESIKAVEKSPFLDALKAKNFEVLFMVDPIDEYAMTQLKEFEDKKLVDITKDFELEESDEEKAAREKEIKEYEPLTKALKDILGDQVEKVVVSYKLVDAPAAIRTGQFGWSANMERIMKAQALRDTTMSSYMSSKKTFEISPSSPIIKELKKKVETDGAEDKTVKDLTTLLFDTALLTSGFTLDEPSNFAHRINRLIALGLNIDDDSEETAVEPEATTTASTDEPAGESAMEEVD

[5] = inhibitors of HIV Env-driven cell fusion, dose response, cherry-pick (AID 652057); assay type: functional, cell-based
[6] = CEM21 lymphoblast cell cytotoxicity, dose response, cytotoxicity control for viral fusion inhibitor project, CellTiter-Glo luminescence, cherry-picked (AID 652042); assay type: functional, cell-based;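 further: potency for signal decrease meaning cytotoxicity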
[7] = ZM109 Env clade C HIV-1 fusion inhibitors, dose response, HeLa effector, CEM target cells, luciferase, cherry-pick (AID 652058); assay type: functional, cell-based
[8] = off-target signal loss in HeLa-CEM21 co-culture – HeLa F-luc CTL cells, cherry-picked, counter-screen for HIV-1 Env fusion inhibitor project, dose response (AID 652040); assay type: functional, cell-based;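 further: potency for signal decrease marking cytotoxic or nonspecific inhibition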
[9] = inhibitors of clade B AD8 Env fusion, dose response, cell-based, cherry-pick (AID 652062); assay type: functional;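 further: luciferase signal from cell-cell fusion driven by HIV-1 clade B AD8 Env; potency is for inhibitors of fusion seen as a drop in luminescence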
HEK293 [10] = assay: cells; conditions: Homo sapiens
HEK293 [11] = assay: cells; conditions: Homo sapiens; remark: listed apart in the source
BJ [12] = assay: cytotoxicity toward BJ-TERT fibroblasts, dose response, cell-based, RAS-independent, luminescence (AID 1933); assay type: functional; conditions: Homo sapiens
[13] = target: T1, Heat shock factor protein 1 (Mus musculus, UniProt P38532); assay: inhibition of MG132-induced HSE-luciferase signal, confirmation, cell-based, NIH3T3, luminescence, dose retest (AID 2382); assay type: functional;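 further: NIH3T3 fibroblasts with HSF1-driven luciferase reporter stressed by proteasome inhibitor MG132; luminescence from HSF1-driven luciferase expression after 8 hours of MG132 stress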
T1 sequence (P38532 whole entry): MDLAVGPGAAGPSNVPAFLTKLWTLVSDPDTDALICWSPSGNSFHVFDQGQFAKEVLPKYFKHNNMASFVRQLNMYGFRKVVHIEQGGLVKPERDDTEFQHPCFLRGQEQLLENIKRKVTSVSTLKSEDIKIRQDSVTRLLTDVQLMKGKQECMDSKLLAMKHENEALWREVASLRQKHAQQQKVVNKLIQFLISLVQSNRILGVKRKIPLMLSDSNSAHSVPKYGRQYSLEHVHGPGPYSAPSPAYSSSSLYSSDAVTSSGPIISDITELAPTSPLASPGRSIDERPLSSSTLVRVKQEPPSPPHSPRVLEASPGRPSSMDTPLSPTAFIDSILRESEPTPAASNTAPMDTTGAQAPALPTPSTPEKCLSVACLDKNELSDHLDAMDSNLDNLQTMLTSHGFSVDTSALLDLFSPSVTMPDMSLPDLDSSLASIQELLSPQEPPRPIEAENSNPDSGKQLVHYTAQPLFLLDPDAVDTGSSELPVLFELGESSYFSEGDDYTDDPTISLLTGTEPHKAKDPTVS

BJ [14] = assay: cells; assay type: functional, cell-based; conditions: Homo sapiens
[15] = growth suppression of PTEN-null colon cells, dose response, cell-based, HCT116 PTEN knockout (AID 1047); assay type: functional;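 further: HCT116 colon tumor cells with PTEN knocked out; cells exposed to compound for 60 hours before readout; potency for loss of cell viability measured by luminescence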
[16] = growth suppression of beta-catenin-knockout colon cells, dose response, cell-based, HCT116, human colon tumor (AID 1045); assay type: functional;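 further: HCT116 colon tumor cells with beta catenin knocked out; cells exposed to compound for 60 hours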
BJ [17] = assay: cytotoxicity toward BJ-TERT-LT-ST fibroblasts, dose response, cell-based, RAS-independent, luminescence (AID 1935); assay type: functional; conditions: Homo sapiens;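 further: BJ fibroblasts immortalized with TERT plus LT and ST oncogenes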
[18] = cytotoxicity toward DRD oncogenic fibroblasts, dose response, cell-based, non-viral oncogenic, luminescence (AID 1934); assay type: functional; conditions: Homo sapiens
[19] = target: G-protein coupled receptor 55 (Homo sapiens, UniProt Q9Y2T6); assay: GPR55 agonists via beta-arrestin recruitment, primary screen, imaging, U2OS cells, beta-arrestin-GFP redistribution (AID 1961); assay type: functional
Chain of G-protein coupled receptor 55 (Q9Y2T6 whole entry): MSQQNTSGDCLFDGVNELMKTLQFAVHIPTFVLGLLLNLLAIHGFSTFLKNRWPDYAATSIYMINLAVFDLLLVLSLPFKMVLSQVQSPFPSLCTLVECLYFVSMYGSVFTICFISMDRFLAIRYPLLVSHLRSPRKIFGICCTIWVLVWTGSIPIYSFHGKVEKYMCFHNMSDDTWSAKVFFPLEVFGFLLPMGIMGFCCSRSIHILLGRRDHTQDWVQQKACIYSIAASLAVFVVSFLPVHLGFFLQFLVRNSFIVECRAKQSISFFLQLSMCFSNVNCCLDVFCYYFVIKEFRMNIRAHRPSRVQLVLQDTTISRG

[20] = Luminescence Cell-Based Dose Retest to Confirm Inhibitors of Cancer Stem Cells. [Related pubchem assays (depositor defined):AID2717, AID2721]; assay type: functional; conditions: Homo sapiens
BJ [21] = assay: cytotoxicity toward Ras-transformed BJeLR fibroblasts, dose response, cell-based, alamar blue fluorescence, cherrypicked samples (AID 2631); assay type: functional; conditions: Homo sapiens;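 further: confirmatory dose-response assay in RAS-dependent BJ fibroblasts engineered with TERT, LT and ST, with cytotoxicity read by fluorescence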
INS1 = assay: beta cell apoptosis inhibitors, cytokine rescue, dose response, luminescence, retest (AID 449756); assay type: functional, cell-based; conditions: Rattus norvegicus;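 further: cell death triggered by IL-1 beta plus TNF-alpha plus IFN-gamma mixture; protective hits raise ATP signal compared with cytokine alone wells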
[22] = Shn3 3'UTR reporter inhibitors, dose response, cell-based, Clone20 osteoblasts, firefly luciferase, cherry-picked (AID 624132); assay type: functional;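 further: firefly luciferase luminescence from reporter carrying the Shn3 3'UTR in osteoblasts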
[23] = control 3'UTR Renilla luciferase suppression, dose response, counter-screen for Shn3 inhibitor project, cell-based, Clone20-Shn3RL, cherry-picked (AID 624133); assay type: functional
[24] = target: T2, Corticotropin-releasing factor receptor 2/Corticotropin-releasing factor-binding protein (Homo sapiens, UniProt P24387+Q13324); assay: Dose Response confirmation of uHTS hits for small molecule antagonists of the CRF-binding protein and CRF-R2 receptor complex.; assay type: functional; conditions: read-out: IC50_Mean
T2 sequence (Q13324 whole entry): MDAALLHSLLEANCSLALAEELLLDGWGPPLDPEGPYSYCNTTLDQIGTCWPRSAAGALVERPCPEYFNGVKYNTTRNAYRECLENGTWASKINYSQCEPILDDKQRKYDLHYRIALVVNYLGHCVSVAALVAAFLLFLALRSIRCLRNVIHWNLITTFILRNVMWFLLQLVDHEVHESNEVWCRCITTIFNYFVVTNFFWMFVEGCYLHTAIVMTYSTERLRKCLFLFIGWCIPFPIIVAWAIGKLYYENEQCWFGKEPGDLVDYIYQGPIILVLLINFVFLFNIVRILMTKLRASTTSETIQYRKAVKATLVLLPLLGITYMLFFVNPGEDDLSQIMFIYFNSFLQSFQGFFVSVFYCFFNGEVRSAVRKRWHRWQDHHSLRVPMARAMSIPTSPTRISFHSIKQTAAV
T2 sequence (P24387 whole entry): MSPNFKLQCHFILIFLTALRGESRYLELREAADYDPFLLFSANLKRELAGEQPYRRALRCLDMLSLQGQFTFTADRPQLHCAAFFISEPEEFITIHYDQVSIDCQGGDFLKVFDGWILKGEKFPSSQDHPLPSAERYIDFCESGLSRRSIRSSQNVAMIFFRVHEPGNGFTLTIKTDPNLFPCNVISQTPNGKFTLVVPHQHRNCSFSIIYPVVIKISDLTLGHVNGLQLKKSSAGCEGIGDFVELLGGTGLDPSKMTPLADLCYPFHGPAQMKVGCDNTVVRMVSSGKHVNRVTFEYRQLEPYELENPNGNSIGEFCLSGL

[25] = target: T2, Corticotropin-releasing factor receptor 2/Corticotropin-releasing factor-binding protein; assay: activators of CRF receptor 2 with binding protein – uHTS hits, confirmation (AID 602473); assay type: functional; conditions: read-out: EC50_Mean
Escherichia coli = assay: microbe, parasite or virus in culture

For `CCCCOc1cccc(C2C(C(=O)c3ccc(C)o3)=C(O)C(=O)N2Cc2ccco2)c1` (stereo unspecified), the EC50 [1] was > 150 µM (inactive), the EC50 [2] was 0.398 µM (active) and the EC50 [3] was > 180 µM (inactive). For the same molecule, the EC50 [4] was 16.6 µM (active).

In the case of `COC(=O)c1c(NC(=O)CN2CCC3(O)CCCCC3C2c2cc(OC)ccc2OC)sc(C)c1C` (stereo unspecified), the AC50 [5] is reported as 0.472 µM (active), the AC50 [6] is reported as 48.1 µM (active) and the AC50 [7] is reported as 1.15 µM (active). For the same molecule, the AC50 [8] was 1.21 µM (active), the AC50 [9] was 3.62 µM (active) and the EC50 (HEK293 [10]) was > 59.7 µM (inactive). For the same molecule, the EC50 (HEK293 [11]) was > 59.7 µM (inactive).

With `CCOC(=O)/C(=C\c1ccc([N+](=O)[O-])cc1)C(=O)c1cc(C(C)=O)c(Nc2ccccc2)s1` the EC50 (BJ [12]) was 2.12 µM (active), the EC50 [13] was 3.16 µM (inconclusive) and the EC50 (BJ [14]) was 3.1 µM (active). The EC50 [15] was 4.17 µM (active), the EC50 [16] was 3.81 µM (active) and the EC50 (BJ [17]) was 2.18 µM (inconclusive). The EC50 [18] was 3.32 µM (active), the EC50 [19] was > 32 µM (inactive) and the AC50 [20] was 0.685 µM (active). The EC50 (BJ [21]) was 1.49 µM (active), the AC50 (INS1) was 1.94 µM (active) and the AC50 [22] was 2.47 µM (active). For the same molecule, the AC50 [23] was 6.21 µM (active).

With `COC(=O)c1ccc(OC(=O)c2nn(C)cc2Cl)c(OC)c1` the IC50 [24] was > 47.1 µM (inactive), the EC50 [25] was > 53 µM (inactive) and the AC50 (Escherichia coli) was 42.7 µM (active).

With `CCc1cc(C(=O)NN=C(S)Nc2cc(C)ccc2C)cs1` the EC50 [1] was > 150 µM (inactive), the EC50 [2] was 0.382 µM (active) and the EC50 [3] was > 180 µM (inactive). For the same molecule, the EC50 [4] was > 150 µM (inactive).

Source: ChEMBL document CHEMBL1201862, “PubChem BioAssay data set” (2004)
